Test results taken from PubChem BioAssay AID2060494 (Molecular Pharmacology Branch, DTP, NCI, 2025).

System: 435261-313-R-J1-PDC complex spheroid viability
Assay: Anticancer human tumor 435261-313-R-J1-PDC patient-derived colon adenocarcinoma cell line growth inhibition [GQUAD]
Conditions: for IC50: curve of first compound; for viability, T/C: stronger effect = lower value
Procedure, shortened: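 Multi-cell-type spheroids of tumor cells with HUVEC and mesenchymal stem cells, treated with drug combinations. Concentrations descend in half-log steps from near clinical Cmax, or from 10 microM where Cmax is unknown; viability read-out.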

[1] = second compound 0.0316 µM, first compound 0.0316 µM
[2] = second compound 0.0316 µM, first compound 0.1 µM
[3] = second compound 0.0316 µM, first compound 0.316 µM
[4] = second compound 0.0316 µM, first compound 1 µM
[5] = second compound 0.0316 µM, first compound 3.16 µM
[6] = second compound 0.0316 µM, first compound 10 µM
[7] = second compound 0.1 µM, first compound 0.0316 µM
[8] = second compound 0.1 µM, first compound 0.1 µM
[9] = second compound 0.1 µM, first compound 0.316 µM
[10] = second compound 0.1 µM, first compound 1 µM
[11] = second compound 0.1 µM, first compound 3.16 µM
[12] = second compound 0.1 µM, first compound 10 µM
[13] = second compound 0.316 µM, first compound 0.0316 µM
[14] = second compound 0.316 µM, first compound 0.1 µM
[15] = second compound 0.316 µM, first compound 0.316 µM
[16] = second compound 0.316 µM, first compound 1 µM
[17] = second compound 0.316 µM, first compound 3.16 µM
[18] = second compound 0.316 µM, first compound 10 µM
[19] = second compound 1 µM, first compound 0.0316 µM
[20] = second compound 1 µM, first compound 0.1 µM
[21] = second compound 1 µM, first compound 0.316 µM
[22] = second compound 1 µM, first compound 1 µM
[23] = second compound 1 µM, first compound 3.16 µM
[24] = second compound 1 µM, first compound 10 µM
[25] = second compound 3.16 µM, first compound 0.0316 µM
[26] = second compound 3.16 µM, first compound 0.1 µM
[27] = second compound 3.16 µM, first compound 0.316 µM
[28] = second compound 3.16 µM, first compound 1 µM
[29] = second compound 3.16 µM, first compound 3.16 µM
[30] = second compound 3.16 µM, first compound 10 µM
[31] = second compound 10 µM, first compound 0.0316 µM
[32] = second compound 10 µM, first compound 0.1 µM
[33] = second compound 10 µM, first compound 0.316 µM
[34] = second compound 10 µM, first compound 1 µM
[35] = second compound 10 µM, first compound 3.16 µM
[36] = second compound 10 µM, first compound 10 µM
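Also: spheroids exposed to the agents for seven days before readout.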
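For viability, T/C in this document: percent of vehicle control viability with DMSO wells as 100%.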

## Cc1cccc(N(C)C(=O)C2C(O)CCN2c2nc(C)cc(C(F)(F)F)c2C#N)c1 (stereo unspecified) + CN(C)c1ccc(Nc2c3ccc(NC(=O)CCN4CCCC4)cc3nc3cc(NC(=O)CCN4CCCC4)ccc23)cc1
Second compound 0.0316 µM
  IC50: > 10 µM
Second compound 0.1 µM
  IC50: > 10 µM
Second compound 0.316 µM
  IC50: > 10 µM
Second compound 1 µM
  IC50: > 10 µM
Second compound 3.16 µM
  IC50: > 10 µM
Second compound 10 µM
  IC50: < 0.0316 µM
[1]
  viability, T/C: 97.7%
[2]
  viability, T/C: 92.1%
[3]
  viability, T/C: 99.7%
[4]
  viability, T/C: 90.6%
[5]
  viability, T/C: 96.2%
[6]
  viability, T/C: 123%
[7]
  viability, T/C: 84.8%
[8]
  viability, T/C: 92.9%
[9]
  viability, T/C: 81.6%
[10]
  viability, T/C: 74.5%
[11]
  viability, T/C: 99%
[12]
  viability, T/C: 84.8%
[13]
  viability, T/C: 86.9%
[14]
  viability, T/C: 94%
[15]
  viability, T/C: 76.8%
[16]
  viability, T/C: 90.3%
[17]
  viability, T/C: 81.7%
[18]
  viability, T/C: 73.1%
[19]
  viability, T/C: 79.3%
[20]
  viability, T/C: 95.5%
[21]
  viability, T/C: 111%
[22]
  viability, T/C: 93%
[23]
  viability, T/C: 70.7%
[24]
  viability, T/C: 86%
[25]
  viability, T/C: 64.3%
[26]
  viability, T/C: 65.8%
[27]
  viability, T/C: 43.5%
[28]
  viability, T/C: 66.4%
[29]
  viability, T/C: 59.4%
[30]
  viability, T/C: 44.8%
[31]
  viability, T/C: 34.9%
[32]
  viability, T/C: 56.7%
[33]
  viability, T/C: 47.8%
[34]
  viability, T/C: 34%
[35]
  viability, T/C: 37.4%
[36]
  viability, T/C: 20.9%

## Cn1ncnc1[C@H]1c2n[nH]c(=O)c3cc(F)cc(c23)N[C@@H]1c1ccc(F)cc1 + CN(C)c1ccc(Nc2c3ccc(NC(=O)CCN4CCCC4)cc3nc3cc(NC(=O)CCN4CCCC4)ccc23)cc1
Second compound 0.0316 µM
  IC50: > 0.316 µM
Second compound 0.1 µM
  IC50: > 0.316 µM
Second compound 0.316 µM
  IC50: > 0.316 µM
Second compound 1 µM
  IC50: > 0.316 µM
Second compound 3.16 µM
  IC50: > 0.316 µM
Second compound 10 µM
  IC50: < 0.000999 µM
Second compound 0.0316 µM, first compound 0.000999 µM
  viability, T/C: 86.2%
Second compound 0.0316 µM, first compound 0.00316 µM
  viability, T/C: 92.3%
Second compound 0.0316 µM, first compound 0.00999 µM
  viability, T/C: 85.7%
[1]
  viability, T/C: 78.1%
Second compound 0.0316 µM, first compound 0.0999 µM
  viability, T/C: 74.2%
[3]
  viability, T/C: 74.6%
Second compound 0.1 µM, first compound 0.000999 µM
  viability, T/C: 97.5%
Second compound 0.1 µM, first compound 0.00316 µM
  viability, T/C: 77.7%
Second compound 0.1 µM, first compound 0.00999 µM
  viability, T/C: 90.6%
[7]
  viability, T/C: 92.1%
Second compound 0.1 µM, first compound 0.0999 µM
  viability, T/C: 88.2%
[9]
  viability, T/C: 76.7%
Second compound 0.316 µM, first compound 0.000999 µM
  viability, T/C: 97.5%
Second compound 0.316 µM, first compound 0.00316 µM
  viability, T/C: 73.2%
Second compound 0.316 µM, first compound 0.00999 µM
  viability, T/C: 84.1%
[13]
  viability, T/C: 79.1%
Second compound 0.316 µM, first compound 0.0999 µM
  viability, T/C: 70.7%
[15]
  viability, T/C: 62.2%
Second compound 1 µM, first compound 0.000999 µM
  viability, T/C: 96.7%
Second compound 1 µM, first compound 0.00316 µM
  viability, T/C: 92.1%
Second compound 1 µM, first compound 0.00999 µM
  viability, T/C: 84.5%
[19]
  viability, T/C: 70.7%
Second compound 1 µM, first compound 0.0999 µM
  viability, T/C: 83.2%
[21]
  viability, T/C: 68.9%
Second compound 3.16 µM, first compound 0.000999 µM
  viability, T/C: 70.4%
Second compound 3.16 µM, first compound 0.00316 µM
  viability, T/C: 77.2%
Second compound 3.16 µM, first compound 0.00999 µM
  viability, T/C: 56.1%
[25]
  viability, T/C: 62.4%
Second compound 3.16 µM, first compound 0.0999 µM
  viability, T/C: 78.9%
[27]
  viability, T/C: 48.2%
Second compound 10 µM, first compound 0.000999 µM
  viability, T/C: 31.3%
Second compound 10 µM, first compound 0.00316 µM
  viability, T/C: 35.4%
Second compound 10 µM, first compound 0.00999 µM
  viability, T/C: 44.2%
[31]
  viability, T/C: 26.7%
Second compound 10 µM, first compound 0.0999 µM
  viability, T/C: 27.4%
[33]
  viability, T/C: 35.3%

## O=C(c1cc(Cc2n[nH]c(=O)c3ccccc23)ccc1F)N1CCN(C(=O)C2CC2)CC1 + CN(C)c1ccc(Nc2c3ccc(NC(=O)CCN4CCCC4)cc3nc3cc(NC(=O)CCN4CCCC4)ccc23)cc1
Second compound 0.0316 µM
  IC50: > 10 µM
Second compound 0.1 µM
  IC50: > 10 µM
Second compound 0.316 µM
  IC50: > 10 µM
Second compound 1 µM
  IC50: > 10 µM
Second compound 3.16 µM
  IC50: > 10 µM
Second compound 10 µM
  IC50: < 0.0316 µM
[1]
  viability, T/C: 96%
[2]
  viability, T/C: 133%
[3]
  viability, T/C: 84.8%
[4]
  viability, T/C: 80.8%
[5]
  viability, T/C: 123%
[6]
  viability, T/C: 89.4%
[7]
  viability, T/C: 101%
[8]
  viability, T/C: 83.7%
[9]
  viability, T/C: 118%
[10]
  viability, T/C: 102%
[11]
  viability, T/C: 90%
[12]
  viability, T/C: 81.9%
[13]
  viability, T/C: 109%
[14]
  viability, T/C: 92.5%
[15]
  viability, T/C: 97.8%
[16]
  viability, T/C: 84.2%
[17]
  viability, T/C: 85.2%
[18]
  viability, T/C: 69.9%
[19]
  viability, T/C: 85%
[20]
  viability, T/C: 78%
[21]
  viability, T/C: 70.1%
[22]
  viability, T/C: 70%
[23]
  viability, T/C: 95.8%
[24]
  viability, T/C: 69.2%
[25]
  viability, T/C: 80.5%
[26]
  viability, T/C: 53.2%
[27]
  viability, T/C: 66.8%
[28]
  viability, T/C: 60%
[29]
  viability, T/C: 77.4%
[30]
  viability, T/C: 57.6%
[31]
  viability, T/C: 37.3%
[32]
  viability, T/C: 46.2%
[33]
  viability, T/C: 31%
[34]
  viability, T/C: 49.3%
[35]
  viability, T/C: 36.4%
[36]
  viability, T/C: 32.9%
